Measurements taken from US4834964A, “Use of charged nitroxides as NMR image enhancing agents for CSF” (M.R.I., Inc., priority 1986, dated 1989).

Key:
[1] = NMR image enhancement with nitroxide (cranium and spinal column); assay type: in vivo; conditions: dog, 1.5 Tesla whole-body imager; 7, 21, 40, 60 and 90 min post injection, versus control images
Description: An anesthetized dog (ca. 15 kg) as described in Example 1, in a prone position with front and hind legs extended and the head supported by a pillow in the upright position, was inserted into a small animal coil of a whole-body NMR imager (General Electric 1.5 Teslar instrument). Images of two cross-sections of the cranium and four cross-sections of the spinal column at various points below the point of injection were obtained as controls. The dog was removed from the instrument, injected with the NMR image-enhancing agent as described in Example 1 and the above-described images again obtained at 7, 21, 40, 60 and 90 minutes post injection. […] Because the loss in image enhancement is due to CSF turnover rather than decomposition of the nitroxide or passive diffusion thereof across the spinal cord, this procedure can be employed to study turnover of the CSF.

[2] = T1 relaxation time of CSF after injection of nitroxide into spinal cavity of dogs; assay type: in vivo; set-up: T1 RELAXATION TIME: unit not given here; conditions: dog; for T1 RELAXATION TIME: average of 4 studies, time 0: 3.11
Experimental: (§1) Dogs (data is the average of 4 independent studies) under general anesthetic were injected with 2 ml of a 10 mM stock solution of 4-(N,N,N-dimethylethylamino)-2,2,6,6-tetramethylpiperidin-oxyl iodide in saline (0.9%) into the spinal cavity (3 cm below the head). At defined times, samples of CSF were removed from a catheter inserted at the point of injection. The samples were analyzed for nitroxide concentration and relaxation times. (A separate experiment determined that charged nitroxides are not bioreduced by CSF fluid. Therefore, the diminution in nitroxide concentration is attributed to active transport from the spinal cavity.) The data obtained are set forth in the table below.

[3] = Stability/pharmacokinetics of nitroxide in the CSF of dogs (nitroxide concentration); assay type: in vivo; conditions: 20 umol/animal, dog, average of 4 studies
Experimental: as §1

[4] = U.S. Pat. No. 3,702,831; cited from earlier work
[5] = 5 min after 2 ml of 10 mM into spinal cavity
[6] = 10 min after 2 ml of 10 mM into spinal cavity
[7] = 20 min after 2 ml of 10 mM into spinal cavity
[8] = 30 min after 2 ml of 10 mM into spinal cavity
[9] = 45 min after 2 ml of 10 mM into spinal cavity
[10] = 60 min after 2 ml of 10 mM into spinal cavity
[11] = 75 min after 2 ml of 10 mM into spinal cavity
[12] = 90 min after 2 ml of 10 mM into spinal cavity
[13] = 150 min after 2 ml of 10 mM into spinal cavity

Structure (SMILES): CC[N+](C)(C)C1CC(C)(C)N([O])C(C)(C)C1 [4-(N,N,N-dimethylethylamino)-2,2,6,6-tetramethylpiperidinoxyl iodide]
- NMR image of CSF in spinal column [1]: the CSF fluid in the spinal column was clearly imaged and produced a clear anatomical profile of the spinal column in each image, including the cranial sections and all of the 90 minute images
- T1 RELAXATION TIME [2, 5]: 0.904
- T1 RELAXATION TIME [2, 6]: 1.147
- T1 RELAXATION TIME [2, 7]: 1.751
- T1 RELAXATION TIME [2, 8]: 1.942
- T1 RELAXATION TIME [2, 9]: 2.439
- T1 RELAXATION TIME [2, 10]: 2.533
- T1 RELAXATION TIME [2, 11]: 2.546
- T1 RELAXATION TIME [2, 12]: 2.782
- T1 RELAXATION TIME [2, 13]: 2.958
- T1 relaxation time, sufficiency for enhanced NMR image ([2]; 150 min after injection (footnote)): insufficient to obtain an enhanced NMR image
- concentration at 5 min [3, 5]: 3800 µM
- concentration at 10 min [3, 6]: 3300 µM
- concentration at 20 min [3, 7]: 2200 µM
- concentration at 0.5 h [3, 8]: 2000 µM
- concentration at 0.75 h [3, 9]: 1000 µM
- concentration at 1 h [3, 10]: 720 µM
- concentration at 1.25 h [3, 11]: 450 µM
- concentration at 1.5 h [3, 12]: 220 µM
- concentration at 1.75 h ([3]; 105 min after 2 ml of 10 mM into spinal cavity): 70 µM
- concentration at 2.5 h [3, 13]: 30 µM

Structure (SMILES): CC(C)(C)N([O])C(C)(C)C [di-tert-butylnitroxide]
- in vivo elimination [4]: rapidly eliminated in vivo
